Source: ChEMBL document CHEMBL1201862, “PubChem BioAssay data set” (2004)
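Values below derive from 48-hour exposures of cells grown in 96-well plates, with endpoints linearly interpolated between the two concentrations bracketing the appropriate inhibition level. At the GI50, growth is halved.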 Calls of active or inactive are those of the source. No stated cut-off is given here; in the data, active = GI50 up to about 1.1 µM and inactive = higher.

Experiments:
Assay in all cases: inhibition of tumour cell growth, NCI panel, 48 h
786-0 = tested on: 786-0
RPMI-8226 = tested on: RPMI-8226
NCI-H226 = tested on: NCI-H226
KM-20L2 = tested on: KM-20L2
NCI-H522 = tested on: NCI-H522
HCC 2998 = tested on: HCC 2998
LOX IMVI = tested on: LOX IMVI
K562 = tested on: K562
OVCAR-3 = tested on: OVCAR-3
RXF 393 = tested on: RXF 393
M14 = tested on: M14
SW-620 = tested on: SW-620
IGROV-1 = tested on: IGROV-1
Malme-3M = tested on: Malme-3M
UACC-62 = tested on: UACC-62
HT-29 = tested on: HT-29
SK-MEL-5 = tested on: SK-MEL-5
OVCAR-5 = tested on: OVCAR-5
OVCAR-4 = tested on: OVCAR-4

Measured: GI50

C=CCC1(CC)C(=O)NC(=O)NC1=O [ETALLOBARBITAL]
inactive: 786-0 > 100 µM | RPMI-8226 > 100 µM | NCI-H226 > 100 µM | KM-20L2 > 100 µM | NCI-H522 > 100 µM | HCC 2998 > 100 µM | LOX IMVI > 100 µM | K562 > 100 µM | OVCAR-3 > 100 µM | RXF 393 > 100 µM | M14 > 100 µM | SW-620 > 100 µM | IGROV-1 > 100 µM | Malme-3M > 100 µM | UACC-62 > 100 µM

COc1c(C(=O)c2ccc([N+](=O)[O-])cc2)cc(C(C)(C)C)cc1C(C)(C)C
inactive: HT-29 28.7 µM | 786-0 40.9 µM | RPMI-8226 12.6 µM | KM-20L2 35.6 µM | NCI-H522 21.5 µM | HCC 2998 24.9 µM | LOX IMVI 12.3 µM | K562 25.6 µM | SK-MEL-5 15.6 µM | OVCAR-5 13.4 µM | RXF 393 17.1 µM | M14 22.9 µM | SW-620 48.6 µM | IGROV-1 72.4 µM | Malme-3M 26.5 µM | OVCAR-4 43.1 µM | UACC-62 16.7 µM

COc1ccc(C[C@@H]2Cc3cc(OC)c(OC)cc3CN2C)cc1
inactive: HT-29 > 100 µM | 786-0 > 100 µM | RPMI-8226 > 100 µM | KM-20L2 > 100 µM | NCI-H522 > 100 µM | HCC 2998 > 100 µM | K562 > 100 µM | OVCAR-3 > 100 µM | SK-MEL-5 > 100 µM | OVCAR-5 > 100 µM | M14 > 100 µM | SW-620 > 100 µM | Malme-3M > 100 µM | OVCAR-4 76.4 µM

Cc1ccc(C2=CC(=O)c3ccccc3C2=O)n1-c1ccccc1
inactive: HT-29 > 100 µM | 786-0 > 100 µM | RPMI-8226 36.7 µM | NCI-H226 7.67 µM | KM-20L2 > 100 µM | NCI-H522 > 100 µM | HCC 2998 > 100 µM | LOX IMVI > 100 µM | K562 53 µM | OVCAR-3 87.1 µM | SK-MEL-5 > 100 µM | RXF 393 > 100 µM | M14 > 100 µM | SW-620 > 100 µM | IGROV-1 > 100 µM | OVCAR-4 25.6 µM | UACC-62 41.9 µM

O=S(=O)(OI(OI(OS(=O)(=O)C(F)(F)F)c1ccccc1)c1ccccc1)C(F)(F)F
inactive: 786-0 50.4 µM | RPMI-8226 11.6 µM | NCI-H226 58.6 µM | KM-20L2 71.6 µM | NCI-H522 23.2 µM | HCC 2998 > 100 µM | LOX IMVI 20 µM | K562 6.43 µM | OVCAR-3 93.3 µM | SK-MEL-5 13.5 µM | OVCAR-5 > 100 µM | RXF 393 17.3 µM | M14 43 µM | SW-620 32 µM | IGROV-1 55.8 µM | Malme-3M 11.7 µM | UACC-62 64.4 µM
